Reference: US20130178609A1, “MODULAR CONSTRUCTION OF LIPOPHOSPHOLIPIDS” (Centre National de la Recherche Scientifique - CNRS, priority 2010, published 2013)
Several values for one entry are separate records, joined by “and”; a condition that tells them apart may be missing. Identical values can stand only once.

Experiment: Fluorescence excitation/emission maxima and molar absorption of the fluorescent phospholipids in EtOH
Format: physicochemical

For CCCCCCCC/C=C\CCCCCCCCOP(=O)(NCc1cn(-c2cc3ccc(O)cc3oc2=O)nn1)OCCCCCCCC/C=C\CCCCCCCC [Compound 4a], the “λmax,em” value was 425 nm and 479 nm and the “λmax,exc” value was 349 nm and 412 nm.
